# Read-outs that look alike come from different tables or passages of the source.
# Tests used:
# human ApoA-I promoter = assay: ApoA-I promoter induction in Caco-2 intestinal cells (pAI.474-Luc luciferase reporter); type: cell-based; conditions: Caco-2 cells, 15 μM, 48 hours incubation, luciferase activity vs control samples
# Experimental: To examine the effects of compounds of the invention to increase ApoA-I expression, Caco-2 cells, an intestinal cell line derived from human epithelial intestinal cells, were grown under conditions recommended by the ATCC and summarized in United States Patent Application Publication No. 20040033480 (“Wong”), incorporated herein by reference.
# Briefly, the promoter region of the gene encoding human ApoA-I was isolated and ligated upstream of the firefly luciferase gene to construct the reporter plasmid pAI.474-Luc. This reporter plasmid and pRSV-β-galactosidase (as a control for transfection efficiency) were co-transfected to Caco-2 cells. The Caco-2 cells were then incubated in a MEM selection media containing 20% fetal calf serum supplemented with G418 (final concentration: 0.5 mg/mL, Gibco) to give established strains that stably express from the reporter gene. The strains were seeded in 6-well culture plates and incubated for 48 hours at 37° C. under 5% carbon dioxide. Cells were starved for 24 hrs in MEM selection media containing 0.5% FBS. Then, a solution of a compound of the invention in DMSO or other appropriate solvent was added to the wells at a final concentration of 0 to 100 μM in MEM selection media containing 0.5% FBS.
# After further incubation for 48 hours, the cells were harvested and lysed using Reporter Lysis Buffer (PROMEGA E3971), and 50 μL of luciferase assay reagent (PROMEGA E4550 Luciferase Reporter 1000 assay system) was added to measure luciferase activity with a luminometer (Fluoroskan Ascent FL from Thermo electron Corporation). Luciferase activity was normalized to lysate protein concentrations, measured using Bradford Reagent (BioRad Protein Assay reagent Cat #500-0006). The luciferase activity of cells treated with various concentrations of test compounds was compared to that of solvent control sample (i.e., solvent without any compound of the present invention added) and untreated control sample.
# Caco-2 permeability = type: in vitro ADME, human; conditions: human
# Text: The Caco-2 cell drug transport model is widely used for screening compounds in drug discovery to assess intestinal transport and predict absorption rates.
# hApoA-I transgenic mice = assay: hApoA-I transgenic mice, oral gavage for 14 days; type: in vivo; conditions: for change in vivo at 10 mg/kg / change in vivo at 30 mg/kg: Mus musculus, po, 336 h, relative to pretreatment, read-out: ApoA-I (% change); for change in vivo at 10 mg/kg: 10 mg/kg BID 14 days; for change in vivo at 30 mg/kg: 30 mg/kg BID 14 days
# Text: To test whether the efficacy of compounds of the invention observed in vitro extended to an in vivo model, transgenic mice carrying multiple copies of the human ApoA-I gene (C57BI/6-tgn(apoa1)1 rub, Jackson Laboratory, Bar Harbor, Me.) were exposed to representative compounds of the invention. The exogenous human ApoA-I gene in these mice enables them to express the human ApoA-I protein under the control of this promoter.
# Seven to eight week old male mice, transgenic for human ApoA-I were housed five per cage (10″×20″×8″ with aspen chip bedding) with pelleted Rodent chow [Purina 5001] and water available at all times. After an acclimation period of 1 week, animals were individually identified by numbering on tail and weighed. Mice were pre bled via the retro-orbital plexus, and 150 μl of blood was collected in 1.5 ml Eppendorf tube containing 1 μl of heparin and chilled on ice. Plasma was collected after centrifuging the whole blood at 14000 rpm [TOMY high speed micro-refrigerated centrifuge NTX-150] for 10 minutes at 4° C. and frozen at −80° C. Plasma was analyzed for: human ApoA-I by a human ApoA-I enzyme-linked Immunoassay [Direct Sandwich ELISA Calbiochem Cat#178422, Calbiochem Cat#178452, lot #B9076, Calbiochem Cat #178470 conjugated to Horse Radish Peroxidase (Cedarlane Cat#80220)]; total cholesterol [Ponte scientific reagents: # C7509-STD, #L7580-18, # C7510]; and triglyceride [Pointe Scientific Reagents: # 7532-STD, # L7580-18, #7532]. All samples were measured in triplicates and expressed as mg/dl. Mice were grouped based on the above plasma parameters and having an average body weight of 25 gm.
# Two days following pre-bleed, mice were dosed by oral gavage daily for 14 days using a 20 gauge, 11/2″ curved disposable feeding needle [Popper & Sons]; when BID, mice were gavaged morning and afternoon (8 am and 5 pm); when SID mice were gavaged in morning (8 am). Compounds were prepared each day in vehicle. Test article(s), a positive control fenofibrate, and vehicle were dosed at volume of 5 mL/kg of body weight as a suspension (0.1 mL/20 g mouse). Fenofibrate was obtained commercially [SIGMA #F 6020]. Mice weights were recorded on day 1, 4, 7, 10, 12, and 15. On day 15, mice were weighed and fasted for 4 hours, sacrificed by inhalation of CO2 and blood was obtained via cardiac puncture (0.7-1.0 ml). Plasma was collected and frozen at −80° C. Samples were assayed for ApoA-I, total cholesterol, triglyceride and HDL-C by HPLC [Polaris 200 with an auto sampler Prostar 410 from Varian on a Superose 6 10/30 column from Amersham]. Samples were sent for NMR analysis [LipoScience] to identify particle size and subclass for lipoproteins. During necropsy, liver, brown fat, and the whole of small and large intestines were collected, cleaned with cold PBS and frozen at −80° C. for further analysis of compound levels. Variation between studies, in ApoA-I changes, was observed. Therefore, a relative comparison between individual(s) in the study groups was used.
# 4′-hydroxyflavone (10 mg/kg of body weight), 4-(4-oxo-4H-chromen-2-yl)phenyl nicotinate (Example 71) (10 mg/kg of body weight) and fenofibrate (100 mg/kg of body weight) were BID administered to hApoA-I transgenic mice daily for fourteen days by oral gavage in 0.5% Methylcellulose (w/v)/1% Tween 80 (w/v). Plasma was assayed for ApoA-I (FIG. 3A), HDL cholesterol and total cholesterol (FIG. 3B) and percent weight gain (FIG. 3C).
# 4′-hydroxyflavone (3 mg/kg of body weight), 4′-hydroxyflavone (10 mg/kg of body weight), 4′-hydroxyflavone (30 mg/kg of body weight), 2-(4-Hydroxy-phenyl)-pyrano[2,3-b]pyridin-4-one (10 mg/kg of body weight), and fenofibrate (100 mg/kg of body weight) were BID administered to hApoA-I transgenic mice daily for fourteen days by oral gavage in 0.5% methylcellulose (w/v)/1% Tween 80 (w/v). In this experiment plasma was assayed for ApoA-I. […]
# [1] = Table 6 third group, Control 3 (F-101) (6.32)
# [2] = Table 6 fourth group, Control 3 1.11
# [3] = in vitro Caco-2 intestinal transport model, read-out: % Transported Paap
SMILES,Papp (Caco-2 permeability; Caco-2) [×10⁻⁶ cm/s],melting point [°C],ApoA-I Promoter Induction (human ApoA-I promoter),further results
"O=c1cc(-c2cc(F)c(O)c(F)c2)oc2ccccc12 [Example 6, 2-(3,5-difluoro-4-hydroxyphenyl)chromen-4-one]",0.531,275 to 276,–,–
"COc1ccc2c(=O)cc(-c3ccc(O)cc3)oc2c1 [7-methoxy-2-(4-hydroxyphenyl)-4H-chromen-4-one, reference compound]",–,–,–,Papp (Caco-2 permeability; [3]): 6.92 ×10⁻⁶ cm/s
"CC(C)OC(=O)C(C)(C)Oc1ccc(C(=O)c2ccc(Cl)cc2)cc1 [fenofibrate, reference compound]",–,–,–,"liver weight gain normalized to body weight, compared to vehicle (hApoA-I transgenic mice; Experiment A, 100 mg/kg BID, day 15, male mice): significant increase; change in vivo at 30 mg/kg (hApoA-I transgenic mice; [2]): 68.9%; change in vivo at 30 mg/kg (hApoA-I transgenic mice; Table 6 second group, Control 1 3.42): 127%; change in vivo at 30 mg/kg (hApoA-I transgenic mice; Table 6 third group, Control 3 (6.32)): 74.4%"
"O=c1cc(-c2ccc(O)cc2)[nH]c2ccccc12 [Example 51, 2-(4-Hydroxy-phenyl)-1H-quinolin-4-one]",–,–,no increase,change in vivo at 10 mg/kg (hApoA-I transgenic mice; [1]): 32.8%
"O=c1cc(-c2ccccc2)oc2cc(O)cc(O)c12 [5,7-Dihydroxy-2-phenyl-4H-chromen-4-one, 5,7-Dihydroxy-2-phenyl-chromen-4-one, reference compound]",–,–,increased,Papp (Caco-2 permeability; [3]): 0.122 ×10⁻⁶ cm/s
"O=c1cc(-c2ccc(O)cc2)oc2ncccc12 [2-(4-hydroxy-phenyl)-pyrano[2,3-b]pyridin-4-one]",–,–,–,"plasma ApoA-I, net % change over vehicle (hApoA-I transgenic mice; Experiment B, 10 mpk BID oral gavage, two weeks): 3.75%"
"COc1cc(OC)c2c(=O)cc(-c3ccc(O)cc3)oc2c1 [Example 18, 2-(4-Hydroxyphenyl)-5,7-dimethoxy-4H-chromen-4-one]",–,301 to 303,increased,–
"O=c1cc(-c2ccc(O)cc2)oc2cc(O)cc(O)c12 [5,7-dihydroxy-2-(4-hydroxyphenyl)-4H-chomen-4-one, reference compound]",–,–,–,Papp (Caco-2 permeability; [3]): 1.5 ×10⁻⁶ cm/s
"Cc1cc(-c2cc(=O)c3ccccc3o2)cc(C)c1O [Example 7, 2-(4-hydroxy-3,5-dimethylphenyl)chromen-4-one]",0.695,255 to 256,increased,–

# Continued, in another order:
Papp (Caco-2 permeability; Caco-2) [×10⁻⁶ cm/s],melting point [°C],SMILES,ApoA-I Promoter Induction (human ApoA-I promoter),further results
1.98,–,"O=c1cc(-c2ccc(O)cc2)oc2cccnc12 [Example 35, 2-(4-hydroxy-phenyl)-pyrano[3,2-b]pyridin-4-one]",increase,–
2.65,–,"CC(=O)Oc1ccc(-c2cc(=O)c3ccccc3o2)cc1 [Example 72, 4-(4-oxo-4H-chromen-2-yl)phenyl acetate]",increased,–
1.23,–,"O=c1cc(-c2ccc(O)cn2)oc2ccccc12 [Example 46, 2-(5-hydroxy-pyridin-2-yl)-chromen-4-one]",increased,change in vivo at 10 mg/kg (hApoA-I transgenic mice; [1]): 5.62%
–,296 to 297,"O=c1cc(-c2ccc(O)nc2)oc2ccccc12 [Example 48, 2-(6-Hydroxypyridin-3-yl)-chromen-4-one]",no increase,change in vivo at 10 mg/kg (hApoA-I transgenic mice; [2]): 4.94%
0.596,300 to 302,"Cc1cc(-c2cc(=O)c3cccnc3o2)ccc1O [Example 38, 2-(4-hydroxy-3-methylphenyl)-4H-pyrano[2,3-b]pyridine-4-one]",increased,–
–,294 to 296,"O=c1cc(-c2ccc(O)cc2)oc2cnccc12 [Example 36, 2-(4-Hydroxyphenyl)pyrano[2,3-c]pyridin-4-one]",increased,change in vivo at 10 mg/kg (hApoA-I transgenic mice; [2]): 17%
6.48,–,"O=c1cc(-c2ccncc2)oc2ccccc12 [Example 47, 2-pyridin-4-yl-chromen-4-one]",increased,change in vivo at 10 mg/kg (hApoA-I transgenic mice; [1]): 22.7%
–,137 to 140,"Oc1ccc(C2=COc3ccccc3O2)cc1 [Example 70, 4-(Benzo[b][1,4]dioxin-2-yl)phenol]",increased,–
–,307 to 308,"O=c1cc(-c2ccc(O)cc2)oc2c[n+]([O-])ccc12 [Example 30, 2-(4-Hydroxyphenyl)-4-oxo-4H-pyrano[2,3-c]pyridine 7-oxide]",no increase,–
–,314 to 315,"O=c1cc(-c2ccc(O)cc2)oc2c1ccc[n+]2[O-] [Example 31, 2-(4-Hydroxyphenyl)-4-oxo-4H-pyrano[2,3-b]pyridine 8-oxide]",no increase,–
–,250 to 252,"N#Cc1ccc(-c2cc(=O)c3cccnc3o2)cc1 [Example 40, 4-(4-Oxo-4H-pyrano[2,3-b]pyridine-2-yl)benzonitrile]",increased,–
–,258.2 to 259.5,"N#CCc1c(-c2ccc(O)cc2)oc2ccccc2c1=O [Example 21, 2-(2-(4-Hydroxyphenyl)-4-oxo-4H-chromen-3-yl)acetonitrile]",increased,–

# — patent US8093273B2, “Flavanoids and isoflavanoids for the prevention and treatment of cardiovascular diseases” (Resverlogix Corp., priority 2004, dated 2012)
